Assay results reported in patent US8716473B2, “Substituted benzotriazines and quinoxalines as inhibitors of P7OS6 kinase” (Sentinel Oncology Limited, priority 2009, dated 2014).
Structures can show the parent of a compound that is named as a salt.

These compounds were tested on phosphorylation of S6 Ser235/236 in MCF-7 cells (assay: Inhibition of P70S6K activity in whole cells: phospho-S6 ELISA in MCF-7 cells). Conditions: Homo sapiens, MCF7, 2 h incubation, 1% FBS.
Assay type: cell-based
Method: The following assay provides IC50 values for inhibition of P70S6K activity in a whole cell assay by determining effects on the phosphorylation of S6^Ser235/236 in MCF-7 cells by ELISA.
The following protocol was used: • 1) MCF-7 cells were seeded in 96-well plates at a density of 7×10^3 cells per well and allowed to adhere for 6 h in media containing 10% FBS. • 2) The full serum media was replaced and cells incubated overnight in media containing 1% FBS, prior to addition of test compounds. • 3) Test compounds were prepared from 10 mM or 5 mM (BEZ-235) DMSO stocks to give final concentration ranges as indicated on graphs. DMSO was constant at a final concentration of 1%. • 4) Test compounds were incubated with cells in duplicate for 2 h at 37° C./5% CO2 in a humidified atmosphere. • 5) The media was removed and cells were lysed by freeze-thawing in cell lysis buffer. • 6) Detection of phosphorylated S6Ser235/236 was then carried out using a PathScan ELISA kit (Cell Signaling Technology #7205). • 7) Lysates were diluted 1:1 with sample diluent before being applied to wells coated with an antibody against phosphorylated-S6 protein. • 8) The ELISA was then performed as stated in the manufacturers' instructions. • 9) The raw data were normalised to control values and analysed using a 4-parameter logistic equation in GraphPad Prism.

Row | IC50 [µM] | SMILES
1 | < 20 | CN(Cc1ccccc1)c1cnc2cc(-c3cncnc3)ccc2n1 [Example 43, Benzyl-methyl-(6-pyrimidin-5-yl-quinoxalin-2-yl)-amine]
2 | < 5 | C[C@H](c1ccccc1)N(C)c1cnc2cc(-c3cn[nH]c3)ccc2n1 [Example 51, Methyl-((R)-1-phenyl-ethyl)-[6-(1H-pyrazol-4-yl)-quinoxalin-2-yl]-amine]
3 | < 1 | COc1cccc([C@@H](C)N(C)c2cnc3cc(-c4cn[nH]c4)ccc3n2)c1 [Example 53, [(R)-1-(3-Methoxy-phenyl)-ethyl]-methyl-[6-(1H-pyrazol-4-yl)-quinoxalin-2-yl]-amine hydrochloride]
4 | < 5 | Oc1cccc(CNc2cnc3cc(-c4cn[nH]c4)ccc3n2)c1 [Example 54, 3-{[6-(1H-Pyrazol-4-yl)-quinoxalin-2-ylamino]-methyl}-phenol]
5 | < 1 | C[C@@H](Nc1cnc2cc(-c3cn[nH]c3)ccc2n1)c1cccc(Cl)c1 [Example 55, [(R)-1-(3-Chloro-phenyl)-ethyl]-[6-(1H-pyrazol-4-yl)-quinoxalin-2-yl]-amine hydrochloride]
6 | < 5 | C[C@H](c1cccc(Cl)c1)N(C)c1cnc2cc(-c3cn[nH]c3)ccc2n1 [Example 56, [(R)-1-(3-Chloro-phenyl)-ethyl]-methyl-[6-(1H-pyrazol-4-yl)-quinoxalin-2-yl]-amine]
7 | < 1 | Cc1cccc([C@@H](C)Nc2cnc3cc(-c4cn[nH]c4)ccc3n2)c1 [Example 58, [6-(1H-Pyrazol-4-yl)-quinoxalin-2-yl]-((R)-1-m-tolyl-ethyl)-amine hydrochloride]
8 | < 20 | C[C@H](Nc1cnc2cc(-c3cn[nH]c3)ccc2n1)c1cccc(F)c1 [Example 59, [(S)-1-(3-Fluoro-phenyl)-ethyl]-[6-(1H-pyrazol-4-yl)-quinoxalin-2-yl]-amine hydrochloride]
9 | < 20 | C[C@@H](c1cccc(F)c1)N(C)c1cnc2cc(-c3cn[nH]c3)ccc2n1 [Example 60, [(S)-1-(3-Fluoro-phenyl)-ethyl]-methyl-[6-(1H-pyrazol-4-yl)-quinoxalin-2-yl]-amine]

What follows are compounds tested against p70S6K (h) (Homo sapiens, UniProt P23443) (assay: Determination of p70S6 inhibitory activity (radiometric 33P-ATP filter assay)). Conditions: 40 min at room temperature, read-out: IC50 against P70S6 kinase.
Chain of p70S6K (h) (P23443 whole entry): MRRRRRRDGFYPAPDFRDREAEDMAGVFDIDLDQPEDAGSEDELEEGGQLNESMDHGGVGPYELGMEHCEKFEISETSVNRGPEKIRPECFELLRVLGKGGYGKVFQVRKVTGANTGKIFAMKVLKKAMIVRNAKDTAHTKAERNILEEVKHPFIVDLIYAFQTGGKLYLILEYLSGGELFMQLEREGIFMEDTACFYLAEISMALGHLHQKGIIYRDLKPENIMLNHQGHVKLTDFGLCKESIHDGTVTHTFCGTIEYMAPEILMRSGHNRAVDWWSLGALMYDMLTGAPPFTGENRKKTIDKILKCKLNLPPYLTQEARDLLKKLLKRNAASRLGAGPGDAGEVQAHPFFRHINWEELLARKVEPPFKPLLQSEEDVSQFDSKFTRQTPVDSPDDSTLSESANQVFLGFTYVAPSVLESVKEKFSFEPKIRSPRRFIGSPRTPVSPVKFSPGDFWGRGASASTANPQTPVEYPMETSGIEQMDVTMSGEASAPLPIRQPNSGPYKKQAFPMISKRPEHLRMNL
Assay type: biochemical
Method: The ability of compounds of the invention to inhibit P70S6 kinase was determined using the protocol below.
• 20 mM MOPS, 1 mM EDTA, 0.01% Brij-35, 5% Glycerol, 0.1% b-mercaptoethanol, 1 mg/mL BSA Method: • p70S6K (h)
In a final reaction volume of 25 μL, p70S6K (h) (5-10 mU) is incubated with 8 mM MOPS pH 7.0, 0.2 mM EDTA, 100 μM KKRNRTLTV, 10 mM Mg acetate and [γ-33P-ATP] (specific activity approx. 500 cpm/pmol, concentration as required). The reaction is initiated by the addition of the MgATP mix. After incubation for 40 minutes at room temperature, the reaction is stopped by the addition of 5 μL of a 3% phosphoric acid solution. 10 μL of the reaction mixture is then spotted onto a P30 filtermat and washed three times for 5 minutes in 75 mM phosphoric acid and once in methanol prior to drying and scintillation counting.

Row | SMILES | IC50 [µM]
10 | Clc1ccccc1CNc1cnc2cc(-c3cn[nH]c3)ccc2n1 [Example 10, (2-Chloro-benzyl)-[6-(1H-pyrazol-4-yl)-quinoxalin-2-yl]-amine] | < 1
11 | c1cc(CNc2cnc3cc(-c4cn[nH]c4)ccc3n2)ccn1 [Example 14, [6-(1H-Pyrazol-4-yl)-quinoxalin-2-yl]-pyridin-4-ylmethyl-amine hydrochloride] | < 5
12 | c1cncc(CNc2cnc3cc(-c4cn[nH]c4)ccc3n2)c1 [Example 15, [6-(1H-Pyrazol-4-yl)-quinoxalin-2-yl]-pyridin-3-ylmethyl-amine hydrochloride] | < 1
13 | c1ccc(CNc2cnc3cc(-c4cn[nH]c4)ccc3n2)nc1 [Example 16, [6-(1H-Pyrazol-4-yl)-quinoxalin-2-yl]-pyridin-2-ylmethyl-amine hydrochloride] | < 5
14 | COc1ccccc1CNc1cnc2cc(-c3cn[nH]c3)ccc2n1 [Example 19, (2-Methoxy-benzyl)-[6-(1H-pyrazol-4-yl)-quinoxalin-2-yl]-amine] | < 1
15 | Fc1ccc(CNc2cnc3cc(-c4cn[nH]c4)ccc3n2)cc1C(F)(F)F [Example 20, (4-Fluoro-3-trifluoromethyl-benzyl)-[6-(1H-pyrazol-4-yl)-quinoxalin-2-yl]-amine] | < 1
16 | CN(Cc1ccccc1)c1cnc2cc(-c3ccncc3)ccc2n1 [Example 22, Benzyl-methyl-(6-pyridin-4-yl-quinoxalin-2-yl)-amine] | < 1
17 | CN(Cc1ccccc1)c1cnc2cc(-c3ccncn3)ccc2n1 [Example 23, Benzyl-methyl-(6-pyrimidin-4-yl-quinoxalin-2-yl)-amine] | < 1
18 | C[C@H](Nc1cnc2cc(-c3cn[nH]c3)ccc2n1)c1ccccc1 [Example 24, ((S)-1-Phenyl-ethyl)-[6-(1H-pyrazol-4-yl)-quinoxalin-2-yl]-amine hydrochloride] | < 5
19 | CN(Cc1ccc(F)c(C(F)(F)F)c1)c1cnc2cc(-c3cn[nH]c3)ccc2n1 [Example 29, (4-Fluoro-3-trifluoromethyl-benzyl)-methyl-[6-(1H-pyrazol-4-yl)-quinoxalin-2-yl]-amine] | < 1
20 | FC(F)(F)Oc1cccc(CNc2cnc3cc(-c4cn[nH]c4)ccc3n2)c1 [Example 30, [6-(1H-Pyrazol-4-yl)-quinoxalin-2-yl]-(3-trifluoromethoxy-benzyl)-amine] | < 1
21 | CN(Cc1ccccc1)c1nc2ccc(-c3cn[nH]c3)cc2[n+]([O-])n1 [Example 34, Benzyl-methyl-[1-oxy-7-(1H-pyrazol-4-yl)-benzo[1,2,4]triazin-3-yl]-amine] | < 0.1
22 | CN(Cc1ccccc1)c1nnc2cc(-c3cn[nH]c3)ccc2n1 [Example 35, Benzyl-methyl-[7-(1H-pyrazol-4-yl)-benzo[1,2,4]triazin-3-yl]-amine] | < 0.1
23 | COc1cccc(CNc2nc3ccc(-c4cn[nH]c4)cc3[n+]([O-])n2)c1 [Example 36, (3-Methoxy-benzyl)-[1-oxy-7-(1H-pyrazol-4-yl)-benzo[1,2,4]triazin-3-yl]-amine] | < 0.1
24 | COc1cccc(CNc2nnc3cc(-c4cn[nH]c4)ccc3n2)c1 [Example 37, (3-Methoxy-benzyl)-[7-(1H-pyrazol-4-yl)-benzo[1,2,4]triazin-3-yl]-amine] | < 1
25 | c1ccc2cc(CNc3cnc4cc(-c5cn[nH]c5)ccc4n3)ccc2c1 [Example 39, Naphthalen-2-ylmethyl-[6-(1H-pyrazol-4-yl)-quinoxalin-2-yl]-amine hydrochloride] | < 1
26 | FC(F)(F)c1ccc(CNc2cnc3cc(-c4cn[nH]c4)ccc3n2)cc1 [Example 40, [6-(1H-Pyrazol-4-yl)-quinoxalin-2-yl]-(4-trifluoromethyl-benzyl)-amine] | < 1
27 | CN(Cc1ccccc1)c1cnc2cc(-c3cncnc3)ccc2n1 [Example 43, Benzyl-methyl-(6-pyrimidin-5-yl-quinoxalin-2-yl)-amine] | < 0.1

The remaining lines, values ahead:

Row | IC50 [µM] | SMILES
28 | < 0.1 | Cc1ccc(CNc2cnc3cc(-c4cn[nH]c4)ccc3n2)cc1 [Example 44, (4-Methyl-benzyl)-[6-(1H-pyrazol-4-yl)-quinoxalin-2-yl]-amine]
29 | < 1 | CN(Cc1ccccc1Cl)c1cnc2cc(-c3cn[nH]c3)ccc2n1 [Example 45, (2-Chloro-benzyl)-methyl-[6-(1H-pyrazol-4-yl)-quinoxalin-2-yl]-amine hydrochloride]
30 | < 0.1 | CN1CCN(c2cccc(CN(C)c3cnc4cc(-c5cn[nH]c5)ccc4n3)c2)CC1 [Example 48, Methyl-[3-(4-methyl-piperazin-1-yl)-benzyl]-[6-(1H-pyrazol-4-yl)-quinoxalin-2-yl]-amine]
31 | < 0.1 | C[C@H](c1ccccc1)N(C)c1cnc2cc(-c3cn[nH]c3)ccc2n1 [Example 51, Methyl-((R)-1-phenyl-ethyl)-[6-(1H-pyrazol-4-yl)-quinoxalin-2-yl]-amine]
32 | < 0.1 | COc1cccc([C@@H](C)N(C)c2cnc3cc(-c4cn[nH]c4)ccc3n2)c1 [Example 53, [(R)-1-(3-Methoxy-phenyl)-ethyl]-methyl-[6-(1H-pyrazol-4-yl)-quinoxalin-2-yl]-amine hydrochloride]
33 | < 0.1 | Oc1cccc(CNc2cnc3cc(-c4cn[nH]c4)ccc3n2)c1 [Example 54, 3-{[6-(1H-Pyrazol-4-yl)-quinoxalin-2-ylamino]-methyl}-phenol]
34 | < 0.1 | C[C@@H](Nc1cnc2cc(-c3cn[nH]c3)ccc2n1)c1cccc(Cl)c1 [Example 55, [(R)-1-(3-Chloro-phenyl)-ethyl]-[6-(1H-pyrazol-4-yl)-quinoxalin-2-yl]-amine hydrochloride]
35 | < 1 | C[C@@H](c1ccccc1)N(C)c1cnc2cc(-c3cn[nH]c3)ccc2n1 [Example 57, Methyl-((S)-1-phenyl-ethyl)-[6-(1H-pyrazol-4-yl)-quinoxalin-2-yl]-amine]
36 | < 5 | C[C@H](Nc1cnc2cc(-c3cn[nH]c3)ccc2n1)c1cccc(F)c1 [Example 59, [(S)-1-(3-Fluoro-phenyl)-ethyl]-[6-(1H-pyrazol-4-yl)-quinoxalin-2-yl]-amine hydrochloride]
37 | < 1 | C[C@@H](c1cccc(F)c1)N(C)c1cnc2cc(-c3cn[nH]c3)ccc2n1 [Example 60, [(S)-1-(3-Fluoro-phenyl)-ethyl]-methyl-[6-(1H-pyrazol-4-yl)-quinoxalin-2-yl]-amine]
38 | < 1 | [O-][n+]1nc(NCc2ccccc2)nc2ccc(-c3cn[nH]c3)cc21 [Example 61, Benzyl-[1-oxy-7-(1H-pyrazol-4-yl)-benzo[1,2,4]triazin-3-yl]-amine]
39 | < 1 | [O-][n+]1nc(NCc2ccc(Cl)cc2)nc2ccc(-c3cn[nH]c3)cc21 [Example 62, (4-Chloro-benzyl)-[1-oxy-7-(1H-pyrazol-4-yl)-benzo[1,2,4]triazin-3-yl]-amine]
40 | < 1 | [O-][n+]1nc(NCc2cccc(Cl)c2)nc2ccc(-c3cn[nH]c3)cc21 [Example 63, (3-Chloro-benzyl)-[1-oxy-7-(1H-pyrazol-4-yl)-benzo[1,2,4]triazin-3-yl]-amine]
41 | < 1 | c1ccc(CNc2nnc3cc(-c4cn[nH]c4)ccc3n2)cc1 [Example 64, Benzyl-[7-(1H-pyrazol-4-yl)-benzo[1,2,4]triazin-3-yl]-amine]
42 | < 1 | [O-][n+]1cc(NCc2ccccc2)nc2ccc(-c3cn[nH]c3)cc21 [Example 65C, benzyl-[4-oxy-6-(1H-pyrazol-4-yl)-quinoxalin-2-yl]-amine]
